The record followed here is patent US10064865B2, “Composition comprising phosphodiesterase type 5 inhibitor for inhibiting apoptosis of nerve cells” (ARIBIO INC., priority 2012, dated 2018).

Marks after values point to notes of the source that are not given here.

Experiment [1] relates to neuron apoptosis-operated rats, ipsilateral cerebral cortex. As to the kind of experiment: Example 2 (timing of administration) histopathology: cerebral atrophy and degenerative neurons. Type of experiment: in vivo, Sprague-Dawley (SD) rats. The conditions noted are these: for Cerebral atrophic % / Numbers of neurons: Degenerative cells: 1 mg/kg s.c. once a day for 14 days, 29 days after neuron apoptosis. The method, then:
Total one hundred healthy male Sprague-Dawley (SD) rats (6-wk old upon receipt; Japan; Body weight ranged in 170-190 g upon receipt) were used after acclimatization for 16 days. Animals were allocated four per polycarbonate cage in a temperature (20-25° C.) and humidity (50-55%) controlled room. Light:dark cycle was 12 hr:12 hr, and standard rodent chow (Samyang, Korea) and water were supplied free to access. All animals were treated in accordance with the Guidelines for Care and Use of Laboratory Animals of Daegu Haany University based on the Guide for the Care and Use of Laboratory Animals by Institute of Laboratory Animal Resources, Commission on Life Science, National Research Council, USA on 1996, Washington D.C. Experimental groups are as follows:
The mirodenafil (mirodenafil 2HCl; SK Chemical Life Science Business, KR) was used in this experiment. […] Mirodenafil was stored at 4° C. in a refrigerator to protect from light and humidity until used. Mirodenafil were directly dissolved in saline as 1 mg/ml concentrations, and subcutaneously administered in a volume of 1 ml/kg on the dorsal back skins from 24, 72 and 168 hrs after neuron apoptosis, once a day for 14 days, respectively. In saline and neuron apoptosis control rats, equal volumes of saline as vehicle were administered, instead of mirodenafil from 24 hrs after neuron apoptosis for 20 days, respectively.
(§1) The induction of neuron apoptosis was carried out by damaging the right hemisphere of the brain of animals. Specifically, animals were anesthetized with 2 or 3% isoflurane in the mixture of 70% N2O and 28.5% O2, and were maintained with 1 to 1.5% isoflurane in the mixture of 70% N2O and 28.5% O2. After that the temporalis muscle was bisected and reflected through an incision made midway between the eye and the eardrum canal. The proximal MCA was exposed through a subtemporal craniectomy by microdental drills without removing the zygomatic arch and without transecting the facial nerve. […] Mortality was less than 5%. For sham control, all procedures were performed in the same way, with the exception of the occlusion of the MCA.
At 29 days after neuron apoptosis, rats were sacrificed under deep anesthesia with 3% isoflurane inhalation. Brains were removed, washed in chilled phosphate buffered saline (PBS, pH7.4), and dissected into 6 coronal sections (2 mm thickness) ranging from 2 to 14 mm from the frontal brain pole on the rat brain stainless steel coronal matrix (Harvard, USA). Prepared last 6th cerebral parts were directly fixed in 10% neural buffered formalin. Then, embedded in paraffin, cross-sectioned, and stained with hematoxylin and eosin (H&E) for observing general histopathology of cerebral cortex. […] The histopathologist was blindes to group distribution when this analysis was made.
Histomorphometry: The atrophic % of ipsilateral cerebral cortex was calculated as following Equation 4 as compared with intact contralateral hemisphere in prepared peri-infarct/defect histological specimens. In addition, the numbers of degenerative neurons were also measured in the restricted view fields of cerebral cortex, mm2, respectively. Cerebral atrophy formation=(Contralateral cerebral cortex area−ipsilateral cerebral cortex area)/Contralateral cerebral cortex area×100(%) [EQUATION 4]
All data were expressed as mean±standard deviation (S.D.) of ten rats. Multiple comparison tests for different dose groups were conducted. Variance homogeneity was examined using the Levene test (Levene A, Clin Otalary, 1981; 6:145-51). […] Statistical analyses were conducted using SPSS for Windows (Release 14K, SPSS Inc., USA; Ludbrook, Clin Exp Pharmacol Physiol, 1997; 24:294-6). In addition, the percent changes as compared with neuron apoptosis control and mirodenafil treated rats were calculated to help the understanding of the efficacy of test substances as follow Equation 6 and 7. […]

The test system of a further experiment is caspase-3. As to the kind of experiment: Example 2 immunohistochemistry: caspase-3-immunoreactive cells. Type of experiment: in vivo, Sprague-Dawley (SD) rats. To be noted: for Numbers of neurons: Caspase-3+: 1 mg/kg s.c. once a day for 14 days, 29 days after neuron apoptosis. The procedure: as §1
After deparaffinized of prepared […] histological paraffin sections, citrate buffer antigen (epitope) retrieval pretreatment were conducted as previously (Shi S R et al., J Histochem Cytochem. 41:1599-604(1993)). Briefly, pre-heat water bath with staining dish containing 10 mM citrate buffers (pH 6.0) until temperature reaches 95-100° C. Immerse slides in the staining dish and place the lid loosely on the staining dish. Incubate for 20 minutes and turn off the water bath. Place the staining dish at room temperature and allow the slides to cool for 20 minutes. After epitope retrievals, sections were immunostained using avidin-biotin complex (ABC) methods for caspase-3 and PARP. Endogenous peroxidase activity was blocked by incubated in methanol and 0.3% H2O2 for 30 minutes, and non-specific binding of immunoglobulin was blocked with normal horse serum blocking solution (Vector Lab., Burlingame, Calif., USA. Dilution 1:100) for 1 hr in humidity chamber. Primary antiserum were treated for overnight at 4° C. in humidity chamber, and then incubated with biotinylated universal secondary antibody (Vector Lab., Dilution 1:50) and ABC reagents (Vectastain Elite ABC Kit, Vector Lab., Dilution 1:50) for 1 hr at room temperature in humidity chamber. Finally, reacted with peroxidae substrate kit (Vector Lab.) for 3 min at room temperature. All sections were rinse in 0.01M PBS for 3 times, between steps. The neurons occupied by over 10% of immunoreactivities, the density, of each antiserum for caspase-3 and PARP were regarded as positive, and the mean numbers of caspase-3 and PARPimmunoreactive cells dispersed in the mm^2 of ipsilateral peri-infarct/defect cerebral cortex were counted using an automated image analysis process as establish methods (Lee et al., 2010; Song et al., 2012), respectively. The histopathologist was blinded to the group distribution when performing the analysis.
All data were expressed as mean±standard deviation (S.D.) of ten rats. Multiple comparison tests for different dose groups were conducted. Variance homogeneity was examined using the Levene test (Levene A, Clin Otalary, 1981; 6:145-51). […] Statistical analyses were conducted using SPSS for Windows (Release 14K, SPSS Inc., USA; Ludbrook, Clin Exp Pharmacol Physiol, 1997; 24:294-6). In addition, the percent changes as compared with neuron apoptosis control and mirodenafil treated rats were calculated to help the understanding of the efficacy of test substances as follow Equation 6 and 7. Percentage Changes as Compared with Sham Control (%)=[((Data of neuron apoptosis control−Data of sham control rat)/Data of sham control rats)×100] [EQUATION 6] Percentage Changes as Compared with neuron apoptosis Control (%)=[((Data of test material treated rats−Data of neuron apoptosis control rats)/Data of neuron apoptosis control rats)×100] [EQUATION 7]

Setting [2] is: 1 mg/kg from 24 hrs after surgery.
[3] abbreviates: 1 mg/kg from 72 hrs after surgery.
[4] abbreviates: 1 mg/kg from 168 hrs after surgery.

With `CCCOc1ccc(S(=O)(=O)N2CCN(CCO)CC2)cc1-c1nc2c(CCC)cn(CC)c2c(=O)[nH]1` [Mirodenafil, mirodenafil], the entries for the “ipsilateral cerebral atrophic % at 29 days, change as compared with neuron apoptosis control” value in experiment [1] (setting [2]), in experiment [1] (setting [3]) and in experiment [1] (setting [4]) were −60.71%, −26.37% and −12.31%, respectively. Moreover, the “numbers of degenerative neurons at sacrifice, change as compared with neuron apoptosis control” value in experiment [1] (setting [2]) is reported as −70.64%; in experiment [1] (setting [3]) it was −45.90%; in experiment [1] (setting [4]), −15.40%. Further, the Cerebral atrophic % is listed as 21.90 ± 3.13^ab % in experiment [1] (start 24 hrs after operation), 41.03 ± 5.05^ab % in experiment [1] (start 72 hrs after operation) and 48.87 ± 3.25^ac % in experiment [1] (start 168 hrs after operation). For the same compound, the entries for the “Numbers of neurons: Degenerative cells” value in experiment [1] (start 24 hrs after operation), in experiment [1] (start 72 hrs after operation) and in experiment [1] (start 168 hrs after operation) were 22.80 ± 3.69^ab cells/mm^2 of cerebral cortex, 42.01 ± 6.14^ab cells/mm^2 of cerebral cortex and 65.70 ± 7.64^ac cells/mm^2 of cerebral cortex, respectively. The figures for the “numbers of caspase-3-immunoreactive neurons at 29 days, change as compared with neuron apoptosis control” value in the experiment on caspase-3 (setting [2]), in the experiment with caspase-3 (setting [3]) and in the experiment on caspase-3 (setting [4]) were −57.29%, −40.63% and −15.57%, respectively. For the same compound, the “Numbers of neurons: Caspase-3+” value in the experiment on caspase-3 (start 24 hrs after operation) is listed as 30.01 ± 4.90^ab cells/mm^2 of cerebral cortex; in the experiment with caspase-3 (start 72 hrs after operation), 41.71 ± 6.34^ab cells/mm^2 of cerebral cortex; with caspase-3 (start 168 hrs after operation), 59.33 ± 5.13^a cells/mm^2 of cerebral cortex.
